Assays:
Conditions in all cases: 72 h
Caco-2 [1] = assay: cell viability relative to DMSO; higher = less toxic
Calu-3 [2] = assay: as above
HepG2 [3] = assay: as above
U2OS [4] = assay: as above
Vero E6 [5] = assay: as above
Caco-2 [6] = assay: relative viability EC50 (midpoint between 100% and the lowest measured viability); higher = less toxic
Calu-3 [7] = assay: as above
HepG2 [8] = assay: as above
U2OS [9] = assay: as above
Vero E6 [10] = assay: as above
Caco-2 [11] = assay: drug sensitivity score (DSS) for viability; higher = more toxic; extreme values may be limits of the assay
Calu-3 [12] = assay: as above
HepG2 [13] = assay: as above
U2OS [14] = assay: as above
Vero E6 [15] = assay: as above

Row | SMILES | cell viability (Caco-2 [1]; 1 nM) [%] | cell viability (Caco-2 [1]; 10 nM) [%] | cell viability (Caco-2 [1]; 100 nM) [%] | cell viability (Caco-2 [1]; 1000 nM) [%] | cell viability (Caco-2 [1]; 10000 nM) [%] | cell viability (Calu-3 [2]; 1 nM) [%] | cell viability (Calu-3 [2]; 10 nM) [%] | cell viability (Calu-3 [2]; 100 nM) [%] | cell viability (Calu-3 [2]; 1000 nM) [%] | cell viability (Calu-3 [2]; 10000 nM) [%] | cell viability (HepG2 [3]; 1 nM) [%] | cell viability (HepG2 [3]; 10 nM) [%] | cell viability (HepG2 [3]; 100 nM) [%] | cell viability (HepG2 [3]; 1000 nM) [%] | cell viability (HepG2 [3]; 10000 nM) [%] | cell viability (U2OS [4]; 1 nM) [%] | cell viability (U2OS [4]; 10 nM) [%] | cell viability (U2OS [4]; 100 nM) [%] | cell viability (U2OS [4]; 1000 nM) [%] | cell viability (U2OS [4]; 10000 nM) [%] | cell viability (Vero E6 [5]; 1 nM) [%] | cell viability (Vero E6 [5]; 10 nM) [%] | cell viability (Vero E6 [5]; 100 nM) [%] | cell viability (Vero E6 [5]; 1000 nM) [%] | cell viability (Vero E6 [5]; 10000 nM) [%] | relative viability EC50 (Caco-2 [6]) [µM] | relative viability EC50 (Calu-3 [7]) [µM] | relative viability EC50 (HepG2 [8]) [µM] | relative viability EC50 (U2OS [9]) [µM] | relative viability EC50 (Vero E6 [10]) [µM] | drug sensitivity score (Caco-2 [11]) | drug sensitivity score (Calu-3 [12]) | drug sensitivity score (HepG2 [13]) | drug sensitivity score (U2OS [14]) | drug sensitivity score (Vero E6 [15])
1 | CC1(C)CCC(C)(C)c2cc(C3(c4ccc5cc(C(=O)O)ccc5c4)SCCS3)ccc21 | 106 | 104 | 93.9 | 94.7 | 94.6 | 104 | 106 | 89.4 | 113 | 98.8 | 101 | 85.2 | 96.3 | 106 | 102 | 97.9 | 104 | 94.4 | 93.5 | 98.6 | 95.8 | 98.7 | 96.6 | 98 | 100 | > 10 | > 10 | > 10 | > 10 | > 10 | 0 | 0 | 0 | 0 | 0
2 | CC1(C)Oc2ccc(C#N)cc2[C@H](N(Cc2ncc[nH]2)c2ccc(Cl)cc2)[C@H]1O | 106 | 101 | 98 | 103 | 89.4 | 103 | 104 | 105 | 102 | 99.2 | 107 | 109 | 98 | 103 | 114 | 101 | 103 | 103 | 103 | 96.8 | 93.8 | 93 | 95.2 | 97.2 | 102 | > 10 | > 10 | > 10 | > 10 | > 10 | 0 | 0 | 0 | 0 | 0
3 | CCN(CC)CCOc1ccc(Nc2ncc3cc(-c4c(Cl)cccc4Cl)c(=O)n(C)c3n2)cc1 | 102 | 102 | 80.7 | 41.7 | 5.4 | 98.8 | 99.5 | 80.3 | 49 | 2.3 | 111 | 97.9 | 82.2 | 11.3 | 0.1 | 99.1 | 104 | 90.8 | 10.4 | -0.1 | 95 | 95.3 | 88.9 | 26.6 | -0.1 | 0.532 | 0.712 | 0.266 | 0.329 | 0.465 | 13.5 | 12.5 | 18.4 | 17.5 | 15.3
4 | CN(C)Cc1cccc(N/C(=C2\C(=O)Nc3cc(C(N)=O)ccc32)c2ccccc2)c1 | 102 | 99.7 | 100 | 88.3 | 107 | 103 | 92.7 | 96.3 | 95.6 | 96 | 106 | 105 | 89.4 | 112 | 112 | 96.6 | 94.8 | 99 | 93.5 | 101 | 98.3 | 102 | 95.6 | 96.2 | 102 | > 10 | > 10 | > 10 | > 10 | > 10 | 0 | 0 | 0 | 0 | 0
5 | COC1(C[S@@+]([O-])c2ccccc2)CCN(CCc2c[nH]c3ccc(F)cc23)CC1 | 93.6 | 99.1 | 87.1 | 102 | 90.3 | 100 | 94.6 | 99 | 101 | 100 | 95.9 | 88.4 | 86.6 | 96.6 | 84.1 | 96.2 | 95.9 | 100 | 96.5 | 99.9 | 103 | 101 | 92.5 | 102 | 93.8 | > 10 | > 10 | > 10 | > 10 | > 10 | 0 | 0 | 0 | 0 | 0
6 | COc1ccc2cc(OCC3(C(=O)O)CN(C(=O)c4ccc(F)cc4)C3)ccc2c1 | 93.5 | 102 | 94.8 | 93.8 | 99 | 106 | 95.4 | 104 | 110 | 102 | 106 | 88.7 | 100 | 93 | 96.9 | 94.3 | 108 | 96.1 | 97.9 | 95.8 | 99.2 | 96.9 | 99.5 | 96.2 | 95 | > 10 | > 10 | > 10 | > 10 | > 10 | 0 | 0 | 0 | 0 | 0
7 | FCc1ccc(OCCOc2ccc(Cl)cc2Cl)c(Cl)n1 | 92.7 | 92.8 | 107 | 90.5 | 77 | 101 | 101 | 101 | 97.9 | 92.4 | 94.8 | 97.1 | 98.9 | 104 | 86.3 | 100 | 96.4 | 102 | 94.4 | 92.7 | 95.2 | 105 | 96.6 | 103 | 103 | > 10 | > 10 | > 10 | > 10 | > 10 | 1.9 | 0 | 0.1 | 0 | 0
8 | N[C@@H](CCNCc1ccc(Cl)cc1)C(=O)N1CCCCC1 | 95.9 | 94.3 | 101 | 96.6 | 98.4 | 108 | 98.1 | 101 | 101 | 93.2 | 101 | 109 | 102 | 112 | 95.9 | 98.9 | 99 | 104 | 99.5 | 101 | 94.1 | 99.3 | 91 | 100 | 103 | > 10 | > 10 | > 10 | > 10 | > 10 | 0 | 0 | 0 | 0 | 0
9 | O=C(N[C@H]1CN2CCC1CC2)c1ccc(Cl)cc1 | 98.5 | 97.8 | 103 | 98.3 | 92.6 | 99.6 | 88.7 | 99.6 | 99.8 | 95.6 | 97.2 | 92.2 | 93.7 | 102 | 94.3 | 102 | 97.4 | 99.9 | 95.7 | 101 | 96.7 | 94.7 | 95.4 | 92.7 | 92.5 | > 10 | > 10 | > 10 | > 10 | > 10 | 0 | 0 | 0 | 0 | 0
10 | O=C(Nc1cnccc1Cl)N1CCN(Cc2ccc3c(c2)OC(F)(F)O3)CC1 | 97.7 | 101 | 94 | 90.3 | 81 | 92.4 | 100 | 95.2 | 99 | 92.8 | 95.6 | 100 | 100 | 91.6 | 39.3 | 99.8 | 97.5 | 99.1 | 98.8 | 94 | 108 | 103 | 103 | 100 | 92.4 | > 10 | > 10 | 2.06 | > 10 | > 10 | 1 | 0 | 4.7 | 0 | 0
11 | O=C(O)c1ccc(-c2c[nH]c3ncc(-c4ccccc4)cc23)cc1C1CCCC1 | 92.8 | 107 | 101 | 105 | 93.5 | 98.8 | 92.9 | 97.6 | 107 | 107 | 103 | 100 | 107 | 89.6 | 84.2 | 96.4 | 94.9 | 90.4 | 97.3 | 85.8 | 109 | 106 | 104 | 97 | 101 | > 10 | > 10 | > 10 | > 10 | > 10 | 0 | 0 | 1.1 | 0 | 0
12 | O=C1c2cccnc2OC[C@@H]2CCCN12 | 108 | 99.6 | 100 | 95.6 | 100 | 103 | 87.1 | 98.9 | 101 | 91.1 | 96.9 | 98.8 | 96.1 | 102 | 99.2 | 103 | 98.6 | 95.9 | 97.7 | 96.4 | 93.8 | 98.5 | 90.5 | 91 | 103 | > 10 | > 10 | > 10 | > 10 | > 10 | 0 | 0 | 0 | 0 | 0
13 | Oc1cc2c(c(Cl)c1O)CCNCC2c1ccccc1 (stereo not given) | 99.2 | 94.9 | 85.4 | 90.9 | 95.5 | 95.1 | 106 | 97.7 | 106 | 91.1 | 93.2 | 100 | 100 | 103 | 86.8 | 100 | 97 | 102 | 97.8 | 104 | 104 | 106 | 103 | 104 | 98.6 | > 10 | > 10 | > 10 | > 10 | > 10 | 0 | 0 | 0.1 | 0 | 0
14 | Oc1ccc2[nH]cc(C3=CCNCC3)c2n1 | 79.9 | 95.6 | 97 | 98.1 | 100 | 100 | 92.6 | 105 | 104 | 102 | 107 | 106 | 97.6 | 89.1 | 100 | 94.8 | 100 | 97.1 | 106 | 105 | 105 | 91.2 | 99.4 | 97 | 102 | > 10 | > 10 | > 10 | > 10 | > 10 | 0 | 0 | 0 | 0 | 0

Reference: the supplement of paper PMC13380429
